Source: US20230372307A1, “COMBINATION THERAPY USING BAX ACTIVATOR AGENT” (Albert Einstein College of Medicine, priority 2020, published 2023)
Read-outs that look alike come from different tables or passages of the source.

Legend:
BCL-w = biological target: T1, BCL-w (Homo sapiens, UniProt Q92843); settings: cited from earlier work
T1 sequence (Q92843 1-193): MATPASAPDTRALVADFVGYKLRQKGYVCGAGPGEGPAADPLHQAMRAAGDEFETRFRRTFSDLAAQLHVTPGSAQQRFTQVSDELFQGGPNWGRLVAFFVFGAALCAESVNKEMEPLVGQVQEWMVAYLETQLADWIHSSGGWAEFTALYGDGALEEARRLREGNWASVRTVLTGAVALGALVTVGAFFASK

BCL-XL = BCL-XL (Homo sapiens, UniProt Q07817); settings: cited from earlier work
Sequence of BCL-XL (Q07817 whole entry): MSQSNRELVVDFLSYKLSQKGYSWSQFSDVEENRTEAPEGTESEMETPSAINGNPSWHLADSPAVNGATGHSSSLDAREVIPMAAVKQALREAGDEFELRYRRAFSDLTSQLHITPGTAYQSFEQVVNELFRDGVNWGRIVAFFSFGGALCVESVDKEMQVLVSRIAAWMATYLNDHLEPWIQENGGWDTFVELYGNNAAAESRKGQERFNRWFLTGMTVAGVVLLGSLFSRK

BCL-2 = BCL-2 (Homo sapiens, UniProt P10415); settings: cited from earlier work
Sequence of BCL-2 (P10415 whole entry): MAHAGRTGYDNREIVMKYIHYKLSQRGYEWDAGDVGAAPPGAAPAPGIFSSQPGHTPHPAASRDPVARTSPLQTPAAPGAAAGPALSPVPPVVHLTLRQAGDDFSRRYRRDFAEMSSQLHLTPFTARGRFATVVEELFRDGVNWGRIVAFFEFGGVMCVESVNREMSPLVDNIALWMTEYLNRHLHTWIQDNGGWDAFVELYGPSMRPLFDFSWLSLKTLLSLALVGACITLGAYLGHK

SU-DHL5 = experiment: Cell viability assay (CellTiter-Glo) in SU-DHL5; type: cell-based; settings: Homo sapiens
Method: (§1) CELL VIABILITY ASSAY. […] Cell viability was assayed at 72 hrs by addition of CellTiter-Glo Assay reagents according to the manufacturer's protocol (Promega), and luminescence measured using a F200 PRO microplate reader (TECAN). […] Excluding high-throughput drug screenings, viability assays were performed in at least triplicate and the data normalized to 1% vehicle-treated control wells. IC50 values were determined by nonlinear regression analysis using Prism software (Graphpad). Dilutions of compounds was performed using a TECAN D300e Digital Dispenser from 10 mM stocks. The BLISS calculation was determined using the Combenefit program as previously described by Di Veroli et al., Bioinformatics.

[1] = BTSA1.2 and Navitoclax combination in vivo toxicity study; parameters: species or system CD1-IGS mice; settings: 200 mg/kg BTSA1.2, 100 mg/kg Navitoclax, oral daily for 7 days
Description: 6-8 weeks old CD1-IGS male mice were purchased from Charles River. […] Mice were monitored daily; body weight and peripheral blood counts were monitored at the indicated days.

SW480 xenograft = experiment: SW480 tumor xenograft efficacy and pharmacodynamic study; type: in vivo, nu/nu nude mice; settings: 200 mg/kg BTSA1.2, 100 mg/kg Navitoclax, oral daily
Description: TUMOR XENOGRAFT STUDIES. 6-8 weeks old nu/nu nude male mice were purchased from Charles River. […] For efficacy the efficacy study, treatments started once tumors reached a volume of ˜200 mm^3. […] Body weight of mice were monitored during treatment. For the pharmacodynamic study, treatments started once tumors reached a volume of ˜400 mm^3, after 3 days of daily treatment mice were euthanized and tumors were collected for analysis. Ex-Vivo BHS PROFILING. SW480 xenograft vehicle and combination treated tumors, and COLO-1 and COLO-2 PDX tumors were analyzed by BH3 profiling under basal conditions. Single cells from tumors were isolated by mechanically pass them through a […] strainer filter with cold PBS. SW480 xenograft tumors: […] PDX tumors: […] Single cell suspensions were prepared in 1:1 JC-1-MEB buffer, as previously described, and were kept at room temperature for 10 min to allow for cell permeabilization and dye equilibration. After adding the cells to the 384-well plate, 2.0×10^4 cells/well, fluorescence was measured at 590 nm emission 545 nm excitation using the M1000 microplate reader (TECAN) at 30° C. every 15 min for a total of 2 hrs.

BAX = biological target: T2, BAX (Homo sapiens, UniProt Q07812); experiment: BIM SAHB-BAX competition fluorescence polarization assay (FPA); type: binding; settings: FITC-BIM SAHBA2 50 nM, BAX 500 nM
T2 construct: serial dilutions of full-length BAX; made in house; host or cells: Escherichia coli
T2 sequence (Q07812 whole entry): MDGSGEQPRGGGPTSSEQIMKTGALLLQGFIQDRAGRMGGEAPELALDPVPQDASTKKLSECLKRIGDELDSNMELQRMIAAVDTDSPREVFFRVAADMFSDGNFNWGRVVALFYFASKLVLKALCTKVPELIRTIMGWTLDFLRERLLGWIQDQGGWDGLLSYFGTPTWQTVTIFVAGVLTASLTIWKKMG
Method: PRODUCTION OF RECOMBINANT BAX PROTEIN. […] BAX wild type was purified by size-exclusion chromatography in a buffer containing 20 mM HEPES pH 7.2, 150 mM KC1, 1 mM DTT. Superdex 75 10/300 GL and 200 10/300 GL (GE Healthcare) columns were used.
FLUORESCENCE POLARIZATION BINDING As SAYS. […] Firstly, direct binding isotherms were generated by incubating FITC-BIM SAHBA2 (50 nM) with serial dilutions of full-length BAX and fluorescence polarization was measured at 20 min on a F200 PRO microplate reader (TECAN). Subsequently, in competition assays, a serial dilution of small-molecule or acetylated BIM SAHBA2 (Ac-BIM SAHB) was combined with FITC-BIM SAHBA2 (50 nM), followed by the addition of recombinant protein at EC75 concentration, as determined by the direct binding assay (BAX: 500 nM). EC50 and IC50 values were calculated by nonlinear regression analysis of competitive binding curves using Graphpad Prism software.

[2] = test system: leukemia and lymphoma cell lines; experiment: cells; settings: Homo sapiens, 72 h, read-out: mean cell viability IC50
Method: as §1

solid tumor cell lines = experiment: Cell viability, solid tumor cell lines of the 46-line panel; type: cell-based; settings: Homo sapiens, read-out: mean cell viability IC50
Method: as §1

SW480 = experiment: Cell viability (CellTiter-Glo), SW480; type: cell-based, human; settings: SW480, 72 hrs
Method: as §1

COLO-1 PDX = experiment: COLO-1 patient-derived xenograft efficacy study; type: in vivo, NOD SCID mice; settings: 200 mg/kg BTSA1.2, 50 mg/kg Navitoclax, oral daily up to 18 days
Description: 6-8 weeks old NOD SCID male mice were purchased from Charles River. […] PDX characterization: mice were divided into two groups COLO-1 and COLO-2 (n=3) were divided into two groups. Tumor was collected once tumor reached a volume of ˜1,000 mm^3. […] Treatments started once tumors reached a volume of ˜200 mm^3. Tumor volume was monitored every 3-4 days by caliper measurements until the cessation of the experiment when tumors reached an ethically unacceptable size or after 18 days of daily treatment (whichever came first). Body weight of mice were monitored during treatment.

in vivo = settings: both, CD1-IGS, mouse, po
Method: MAXIMUM TOLERATED DOSE (MTD) AND IN VIVO TOXICITY STUDIES. […] Mice were monitored daily and body weight was monitored at the indicated days. After 14 days of the first treatment, mice were subject to euthanasia and necropsy (Histology and Comparative Pathology Facility, Albert Einstein College of Medicine) and tissues (e.g. spleen, liver, kidney, lung, heart) were harvested for fixation in 10% buffered formalin (Fisher Scientific) for pathology analysis. […] Blood counts were determined on a Forcyte Veterinary Hematology Analyzer (Oxford Science Inc.). […] Histological evaluation of tissues and necropsy performed by the Histology and Comparative Pathology Facility board-certified veterinary pathologist.

[3] = Pharmacokinetic analysis of BTSA1.2 in mice; type: in vivo; settings: for AUC(0-inf): read-out: AUCinf_obs; for MRT inf: read-out: MRTINF_obs
Method: […] […]. ICR (CD-1) male mice were fasted at least 3 hrs and water was available ad libitum before the study. Animals were housed in a controlled environment, target conditions: temperature 18-29° C., relative humidity 30 to 70%. Temperature and relative humidity were monitored daily. […] Experiments performed at […] joint Biopharmacy Laboratory.

COLO230 = experiment: Cell viability (CellTiter-Glo), COLO230; type: cell-based, human; settings: COLO230, 72 hrs
Method: as §1

OCI-AML3 = experiment: Cell viability (CellTiter-Glo), OCI-AML3; type: cell-based, human; settings: OCI-AML3, 72 hrs
Method: as §1

U937 = experiment: Cell viability (CellTiter-Glo), U937; type: cell-based, human; settings: U937, 72 hrs
Method: as §1

[4] = previously determined by Tse et al; cited from earlier work
BAX:BCL-XL complexes = biological target: T3, BAX:BCL-XL complexes (Homo sapiens, UniProt Q07812); experiment: BAX co-immunoprecipitation and immunoblotting; type: cell-based; settings: 4 hrs treatment
T3 construct: endogenous in cells; host or cells: BxPC-3, SW480, Calu-6
T3 sequence (Q07812 whole entry, one chain of several): as the sequence (Q07812 whole entry) above
Method: Protein lysates were obtained by cell lysis in 0.2% NP-40 buffer (50 mM Tris-HCL, 150 mM NaCl, 1 mM EDTA, 10% Glycerol, 0.2% NP-40, pH 7.50) Immunoprecipitation was performed in 600 mL of 400 μg of proteins, which was precleared by centrifugation followed by exposure to 12 μL (50% slurry) protein A/G beads (Santa Cruz) at 4° C. for 30 min. […] Samples were then exposed to 20 μL (50% slurry) protein A/G beads (Santa Cruz) at 4° C. for 2 hrs and later centrifuged and washed three times with 0.2% NP-40 buffer and boiled in loading buffer (Life Technologies). […] For visualization of proteins with Odyssey Infrared Imaging System (LI-COR Biosciences) membranes were blocked in Odyssey Blocking Buffer (LI-COR Biosciences). Primary antibodies were incubated overnight at 4° C. in a 1:1,000 dilution. After washes, membranes were incubated with an IRdye800-conjugated goat anti-rabbit IgG or IRdye800-conjugated goat anti-mouse IgG secondary antibodies (LI-COR Biosciences) in a 1:10,000 and 1:20,000 dilution, respectively.
After 2 hr, FBS was supplemented to a final concentration of 10%. […] The supernatants were isolated by centrifugation at 15,000×g for 10 min and the mitochondrial pellets solubilized in NP-40 lysis buffer (50 mM Tris-HCL pH 7.4, 150 mM NaCl, 5 mM MgCl2, 1 Mm EGTA, 10% Glycerol, 0.2% NP-40). […]

Calu-6 BAX KO cells = experiment: Viability and caspase 3/7 in WT and CRISPR/Cas9 BAX KO Calu-6 cells; type: cell-based, human
Method: as §1
Assays were performed at least in triplicate.

[5] = SU-DHL-5, 72 hrs, read-out: Viability Inhibition- SU- DHL5- IC50
[6] = SU-DHL-5, 72 h, read-out: Viability Inhibition- SU- DHL5- IC50 (μM)
[7] = male, ICR (CD-1), mouse, IV 1 mg/kg, mice plasma, Mean
[8] = male, ICR (CD-1), mouse, PO 3 mg/kg, mice plasma, Mean

CN(C)CC[C@H](CSc1ccccc1)Nc1ccc(S(=O)(=O)NC(=O)c2ccc(N3CCN(Cc4ccccc4-c4ccc(Cl)cc4)CC3)cc2)cc1[N+](=O)[O-] [ABT-737]
affinity (BCL-w): < 1 mol/L
affinity (BCL-XL): < 1 mol/L
affinity (BCL-2): < 1 mol/L

CCOc1ccccc1NN=C1C(=O)N(c2nc(-c3ccccc3)cs2)N=C1C [BAM7, reference compound]
IC50 (SU-DHL5; [5]): > 25 µM

Cc1nc(N/N=C2\C(=O)N(c3nc(-c4ccccc4)cs3)N=C2c2ccccc2)sc1C [BTSA1.2, 4-(2-(4,5-dimethylthiazol-2-yl)hydrazono)-5-phenyl-2-(4-phenyl-thiazol-2-yl)-2,4-dihydro-3H-pyrazol-3-one]
body weight, blood counts and organs [1]: body weight and blood counts were measured in normal levels but reduction in white blood cells and lymphocytes counts was observed after repeated dosing
IC50 (SU-DHL5; [6]): 0.23 µM
tumor growth (SW480 xenograft): no significant efficacy in reducing tumor growth
IC50 (BAX): 109 nM
IC50 [2]: < 3000 nM
IC50 (solid tumor cell lines; 72 h): > 10000 nM
single agent effect on cell viability (SW480): resistant
necropsy finding (200 mg/kg BTSA1, 300 mg/kg BTSA1.2, oral gavage daily): die by kidney failure after 3 days of treatment
body weights and organ histology (BTSA1.2 up to 200 mg/kg oral): constant body weights and organs examined were between normal histologic limits
dose limiting toxicity (DLT) (oral daily for 5 days): 300 mg/kg
tumor growth (COLO-1 PDX): some PDX showed to respond to BTSA1.2 only treatment as their tumor growth was suppressed
MTD (in vivo): 200 mg/kg
CL_obs ([3]; IV 1 mg/kg, mice plasma, Mean): 0.282
VSS_obs ([3]; IV 1 mg/kg, mice plasma, Mean): 555.803
bioavailability ([3]; male, ICR (CD-1), mouse, plasma, 3 mg/kg, oral administration, mice, read-out: oral bioavailability (% F)): ~50%
Cmax ([3]; male, ICR (CD-1), mouse, plasma, 3 mg/kg, oral administration, mice, read-out: peak concentration (Cmax)): ~8 µM
AUC ([3]; male, ICR (CD-1), mouse, plasma, 3 mg/kg, oral administration, mice, read-out: plasma exposure (AUC)): ~100 µM·h
half-life ([3]; male, ICR (CD-1), mouse, plasma, iv, 1 mg/kg, IV 1 mg/kg, mice plasma, Mean, read-out: T1/2 (converted)): 24.6 h
half-life ([3]; male, ICR (CD-1), mouse, plasma, po, 3 mg/kg, PO 3 mg/kg, mice plasma, Mean, read-out: T1/2 (converted)): 14.4 h
half-life ([3]; male, ICR (CD-1), mouse, plasma, po, 3 mg/kg, oral administration, read-out: half-life (T1/2) in mouse plasma (converted)): ~14 h
bioavailability ([3]; male, ICR (CD-1), mouse, plasma, PO 3 mg/kg vs IV 1 mg/kg, mice, read-out: F(%)): 49.2%
AUC(0-t) [3, 7]: 31900 ng·h/mL
Tmax [3, 7]: 2 h
AUC(0-inf) [3, 7]: 67700 ng·h/mL
Cmax ([3]; male, ICR (CD-1), mouse, IV 1 mg/kg, mice plasma, Mean, read-out: Cmax): 2670 ng/mL
MRT inf [3, 7]: 35.7 h
AUC(0-t) [3, 8]: 47000 ng·h/mL
Tmax [3, 8]: 3.33 h
AUC(0-inf) [3, 8]: 70000 ng·h/mL
Cmax ([3]; male, ICR (CD-1), mouse, PO 3 mg/kg, mice plasma, Mean, read-out: Cmax): 3690 ng/mL
MRT inf [3, 8]: 21.7 h
half-life (T1/2) in mouse plasma ([3]; oral administration): ~15 h

O=C1/C(=N\Nc2nccs2)C(c2ccccc2)=NN1c1nc(-c2ccccc2)cs1 [BTSA1]
IC50 (SU-DHL5; [6]): 0.4 µM

CC1=NN(c2nc(-c3ccccc3)cs2)C(=O)C1=NNc1nccs1 [Compound 3]
IC50 (SU-DHL5; [5]): > 25 µM
IC50 (BAX): 2380 nM

O=C(O)c1cccc(NN=C2C(=O)N(c3nc(-c4ccccc4)cs3)N=C2c2ccccc2)c1 [Compound 5]
IC50 (SU-DHL5; [6]): 2.8 µM
IC50 (BAX): 497 nM

Cc1c(-c2ccc(N3CCc4cccc(C(=O)Nc5nc6ccccc6s5)c4C3)nc2C(=O)O)cnn1CC12CC3CC(CC(C3)C1)C2 [Compound A-1331852]
single agent effect on cell viability (SW480): potent
single agent effect on cell viability (COLO230): not effective
single agent effect on cell viability (OCI-AML3): moderately potent as single agent
single agent effect on cell viability (U937): moderately potent as single agent

CC1(C)CCC(c2ccc(Cl)cc2)=C(CN2CCN(c3ccc(C(=O)NS(=O)(=O)c4ccc(N[C@H](CCN5CCOCC5)CSc5ccccc5)c(S(=O)(=O)C(F)(F)F)c4)cc3)CC2)C1 [Navitoclax, 4-(4-{[2-(4-Chlorophenyl)-5,5-dimethyl-1-cyclohexen-1-yl]methyl}-1-pipera-zinyl)-N-[(4-{[(2R)-4-(4-morpholinyl)-1-(phenylsulfanyl)-2-butanyl]amino}-3-[(trifluoromethyl)sulfonyl]phenyl)sulfonyl]benzamide, reference compound]
body weight, blood counts and organs [1]: lymphocyte, white blood cell and platelet counts reached levels below normal counts upon a single treatment
tumor growth (SW480 xenograft): no significant efficacy in reducing tumor growth
IC50 (solid tumor cell lines; 72 hrs, solid tumor cell lines): > 10000 nM
single agent effect on cell viability (SW480): resistant
MTD [4]: 100 mg/kg/po
BAX:BCL-XL complexes by BAX co-immunoprecipitation (BAX:BCL-XL complexes): disrupted BAX:BCL-XL complexes

CN[C@@H]1C[C@H]2O[C@@](C)([C@@H]1OC)n1c3ccccc3c3c4c(c5c6ccccc6n2c5c31)C(=O)NC4 [staurosporine]
sensitivity of Calu-6 cells lacking BAX expression (Calu-6 BAX KO cells): still sensitive
